Laboratory results as given in ChEMBL document CHEMBL1130420 (J Med Chem, 1997).

Key:
Estrogen receptor [1] = target: T1, Estrogen receptor (Homo sapiens, UniProt Q92731+P03372); conditions: t-47d
Description: Apparent binding affinity against estradiol-stimulated T-47D cell proliferation

[2] = target: T2, Estrogen receptor (Mus musculus) (UniProt O08537+P19785); assay: (§1) Uterine weight after 9 day treatment at 47 ug by oral gavage to ovariectomised mice without estrone; assay type: functional, tissue-based; conditions: Uterus
[3] = target: T2, Estrogen receptor (Mus musculus); assay: (§2) Uterine weight after 9 day treatment at 16 ug by oral gavage to ovariectomised mice with estrone; assay type: functional, tissue-based; conditions: Uterus
[4] = target: T2, Estrogen receptor (Mus musculus); assay: (§3) Uterine weight after 9 day treatment at 16 ug by oral gavage to ovariectomised mice without estrone; assay type: functional, tissue-based; conditions: Uterus
[5] = target: T2, Estrogen receptor (Mus musculus); assay: (§4) Uterine weight after 9 day treatment at 4.7 ug by oral gavage to ovariectomised mice without estrone; assay type: functional, tissue-based; conditions: Uterus
Estrogen receptor [6] = target: T1, Estrogen receptor
Description: Inhibition of estradiol binding to estrogen receptor in Human Breast cancer cytosol (3.3% ethanol)

Estrogen receptor [7] = target: T1, Estrogen receptor; conditions: t-47d; remark: listed apart in the source
Description: Inhibition of estradiol-stimulated T-47D cell proliferation.

[8] = target: T2, Estrogen receptor (Mus musculus); assay: Uterine weight after 9 day treatment at 4.7 ug by oral gavage to ovariectomised mice with estrone; assay type: functional, tissue-based; conditions: Uterus
[9] = target: T2, Estrogen receptor (Mus musculus); assay: (§5) Uterine weight after 9 day treatment at 0.47 ug by oral gavage to ovariectomised mice without estrone; assay type: functional, tissue-based; conditions: Uterus
[10] = target: T2, Estrogen receptor (Mus musculus); assay: Uterine weight after 9 day treatment at 47 ug by oral gavage to ovariectomised mice with estrone; assay type: functional, tissue-based; conditions: Uterus
[11] = target: T2, Estrogen receptor (Mus musculus); assay: (§6) Uterine weight after 9 day treatment at 0.47 ug by oral gavage to ovariectomised mice with estrone; assay type: functional, tissue-based; conditions: Uterus
[12] = target: T2, Estrogen receptor (Mus musculus); assay: Uterine weight after 9 day treatment at 1.6 ug by oral gavage to ovariectomised mice without estrone; assay type: functional, tissue-based; conditions: Uterus
Estrogen receptor [13] = target: T1, Estrogen receptor; assay: Relative Binding Affinity for estrogen receptor in Human Breast cancer or normal uterine cytosol in 3.3%ethanol compared to estradiol; assay type: protein assay; conditions: Uterus
[14] = target: T2, Estrogen receptor (Mus musculus); assay: (§7) Uterine weight after 9 day treatment at 1.6 ug by oral gavage to ovariectomised mice with estrone; assay type: functional, tissue-based; conditions: Uterus
[15] = target: T2, Estrogen receptor (Mus musculus); assay: as §1; assay type: functional, tissue-based; conditions: Uterus; remark: listed apart in the source
[16] = target: T2, Estrogen receptor (Mus musculus); assay: as §7; assay type: functional, tissue-based; conditions: Uterus; remark: listed apart in the source
Estrogen receptor [17] = target: T1, Estrogen receptor; remark: listed apart in the source
Description: Apparent inhibition constant for estrogen receptor in Human uterine cytosol in 3.3%ethanol

[18] = target: T2, Estrogen receptor (Mus musculus); assay: as §4; assay type: functional, tissue-based; conditions: Uterus; remark: listed apart in the source
[19] = target: T2, Estrogen receptor (Mus musculus); assay: as §5; assay type: functional, tissue-based; conditions: Uterus; remark: listed apart in the source
[20] = target: T2, Estrogen receptor (Mus musculus); assay: as §4; assay type: functional, tissue-based; conditions: Uterus; remark: listed apart in the source
[21] = target: T2, Estrogen receptor (Mus musculus); assay: as §1; assay type: functional, tissue-based; conditions: Uterus; remark: listed apart in the source
Estrogen receptor [22] = target: T1, Estrogen receptor; assay: Stimulation of alkaline phosphatase activity in human endometrial Ishikawa cells with 1 nM E2 estradiol; assay type: functional, cell-based
[23] = target: T2, Estrogen receptor (Mus musculus); assay: as §2; assay type: functional, tissue-based; conditions: Uterus; remark: listed apart in the source
[24] = target: T2, Estrogen receptor (Mus musculus); assay: as §6; assay type: functional, tissue-based; conditions: Uterus; remark: listed apart in the source
[25] = target: T2, Estrogen receptor (Mus musculus); assay: as §3; assay type: functional, tissue-based; conditions: Uterus; remark: listed apart in the source

T2 sequence (O08537 whole entry, looked up): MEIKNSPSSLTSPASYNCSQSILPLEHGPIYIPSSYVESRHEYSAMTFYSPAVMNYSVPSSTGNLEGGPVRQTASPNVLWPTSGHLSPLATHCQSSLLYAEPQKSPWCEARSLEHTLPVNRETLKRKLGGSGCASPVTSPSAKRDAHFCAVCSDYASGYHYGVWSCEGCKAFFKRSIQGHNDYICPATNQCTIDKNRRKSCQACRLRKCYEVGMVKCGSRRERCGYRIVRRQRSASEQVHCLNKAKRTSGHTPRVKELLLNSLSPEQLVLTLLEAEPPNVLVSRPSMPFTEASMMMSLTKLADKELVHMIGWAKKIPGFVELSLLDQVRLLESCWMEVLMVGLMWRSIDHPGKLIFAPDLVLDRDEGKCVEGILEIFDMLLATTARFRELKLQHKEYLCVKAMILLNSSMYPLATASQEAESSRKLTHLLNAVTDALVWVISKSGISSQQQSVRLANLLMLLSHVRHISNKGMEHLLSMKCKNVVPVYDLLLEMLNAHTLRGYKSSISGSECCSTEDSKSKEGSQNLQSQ
T2 sequence (P19785 whole entry, looked up): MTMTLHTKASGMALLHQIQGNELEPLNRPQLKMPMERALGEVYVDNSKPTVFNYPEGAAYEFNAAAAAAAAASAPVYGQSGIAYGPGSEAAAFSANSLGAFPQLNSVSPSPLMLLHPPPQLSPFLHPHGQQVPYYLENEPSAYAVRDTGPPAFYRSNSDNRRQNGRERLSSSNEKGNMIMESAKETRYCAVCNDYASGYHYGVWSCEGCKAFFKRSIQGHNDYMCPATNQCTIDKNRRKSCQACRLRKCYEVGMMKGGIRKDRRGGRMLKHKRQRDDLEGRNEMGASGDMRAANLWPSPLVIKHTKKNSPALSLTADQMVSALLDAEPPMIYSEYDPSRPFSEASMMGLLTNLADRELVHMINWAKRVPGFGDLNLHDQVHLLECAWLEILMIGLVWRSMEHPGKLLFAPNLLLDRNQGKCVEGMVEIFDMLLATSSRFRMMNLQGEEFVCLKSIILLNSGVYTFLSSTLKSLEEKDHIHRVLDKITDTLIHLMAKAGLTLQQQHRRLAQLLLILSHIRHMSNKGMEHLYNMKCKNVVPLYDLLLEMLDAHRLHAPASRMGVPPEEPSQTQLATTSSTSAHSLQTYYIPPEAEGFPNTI

Structure (SMILES) | Ki (Estrogen receptor [1]) | Weight [2] | Weight [3] | Weight [4] | Weight [5] | Ki (Estrogen receptor [6]) | IC50 (Estrogen receptor [7]) | Weight [8] | Weight [9] | Weight [10] | Weight [11] | Weight [12] | Weight [14] | other results
CC1=C(c2ccc(OC(=O)C(C)(C)C)cc2)[C@@H](c2ccc(OCCN3CCCCC3)cc2)Oc2cc(OC(=O)C(C)(C)C)ccc21 | 4.22 nM | 18 mg | 75.7 mg | 15.7 mg | 19.8 mg | > 270 nM | 36.2 nM | 91.2 mg | 16.5 mg | 61.1 mg | 83.1 mg | 17.2 mg | 88.6 mg | RBA (Estrogen receptor [13]): < 0.04
CC1=C(c2ccc(OC(=O)C(C)(C)C)cc2)[C@H](c2ccc(OCCN3CCCCC3)cc2)Oc2cc(OC(=O)C(C)(C)C)ccc21 | 0.016 nM | 21.1 mg | 28.9 mg | 19.4 mg | 24.5 mg | 4.71 nM | 0.14 nM | 33.3 mg | 19 mg | 31.7 mg | 72.9 mg | 24.1 mg | 53.4 mg | Weight [15]: 25 mg; Weight [16]: 53 mg; Ki (Estrogen receptor [17]): 11.14 nM; Weight [18]: 24.7 mg; Weight [19]: 21 mg; Weight [20]: 35.3 mg; Weight [21]: 28.1 mg; IC50 (Estrogen receptor [22]): 1.3 nM; Ki (Estrogen receptor [22]): 0.023 nM; Weight [23]: 29.2 mg; Weight [24]: 84 mg; Weight [25]: 24 mg
Oc1ccc(C2=Cc3ccc(O)cc3OC2c2ccc(OCCN3CCCCC3)cc2)cc1 (stereo unspecified) | 0.525 nM | – | – | – | – | – | 4.6 nM | – | – | – | – | – | – | –
